Experimental data as given in patent US8168400B2, “Methods and kits for detection of thromboxane A2 metabolites” (Corgenix Medical Corporation, priority 2005, dated 2012).
Entries after “also recorded” stand apart in the source; their conditions may differ.

Columns and labels:
[1] = test system: monoclonal antibodies of the present invention (anti-11 dhTxB2 / 11 dh2,3dTxB2 mAb); experiment: Monoclonal antibody specificity: percent cross-reactivity (enzyme-based competition assay); assay type: binding, mouse; details: for % Reactivity (cross reactivity): relative to 11 dh TxB2 = 100%
Experimental: The present invention provides a urinary 11dhTxB2 Competitive ELISA Assay. An illustrative standard curve was prepared (see FIG. 6) by spiking known amounts of 11dhTxB2 into low level urine diluted 1:5 in Tris assay buffer (0.1M Tris, 0.1% BSA) or into assay buffer alone. 100 μl of standards or actual samples (having taken known amounts of aspirin and diluted 1:5 in Tris assay buffer) was added to wells coated with goat anti-mouse antibody, followed by the addition of 50 μl of 11 dhTxB2-AP (alkaline phosphatase) tracer and 50 μl of 11 dhTxB2 mAb. The reactions were then allowed to incubate for a predetermined amount of time, typically with shaking at room temperature. In preferred embodiments the incubation is about two hours in length. Each well is then washed with a wash buffer and approximately 200 μl of substrate added (p-nitrophenyl-phosphate, pNPP). The reactions are then incubated again for approximately thirty minutes. A stop solution is added to each well, and the plate read for OD at 405 nm.
Antibody clones of the invention were tested to determine cross-reactivity against various Thromboxane A2 metabolites and other like compounds. Table 2 provides percent cross reactivity of antibodies of the present invention against these various compounds: […]

[2] = low dose aspirin; patients with arterial vascular disease; cited from earlier work
[3] = target: T1, platelet COX-1 (Homo sapiens, UniProt P23219); details: low dose aspirin; cited from earlier work
T1 construct: host or cells: platelets (in vivo, patients on low dose aspirin)
T1 sequence (P23219 24-599): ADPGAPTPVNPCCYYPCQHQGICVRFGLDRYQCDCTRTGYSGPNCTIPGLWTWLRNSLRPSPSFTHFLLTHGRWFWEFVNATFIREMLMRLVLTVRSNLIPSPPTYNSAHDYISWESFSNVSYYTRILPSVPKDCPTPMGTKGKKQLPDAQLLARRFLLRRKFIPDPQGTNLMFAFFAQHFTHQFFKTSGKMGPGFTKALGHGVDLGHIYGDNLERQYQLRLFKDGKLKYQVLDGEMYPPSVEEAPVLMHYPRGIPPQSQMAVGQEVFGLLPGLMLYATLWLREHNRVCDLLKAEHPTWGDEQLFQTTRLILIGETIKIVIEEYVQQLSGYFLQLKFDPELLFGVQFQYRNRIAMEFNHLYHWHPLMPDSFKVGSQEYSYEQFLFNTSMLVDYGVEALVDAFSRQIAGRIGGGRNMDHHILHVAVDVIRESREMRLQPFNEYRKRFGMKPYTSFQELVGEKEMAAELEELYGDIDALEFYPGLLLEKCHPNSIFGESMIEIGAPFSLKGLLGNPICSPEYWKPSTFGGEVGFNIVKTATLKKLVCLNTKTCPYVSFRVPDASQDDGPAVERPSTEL

[4] = test system: urinary 11dhTxB2 (TxA2 metabolites); experiment: Urinary 11dhTxB2 competitive ELISA in subjects on aspirin; assay type: in vivo, human; details: for urinary 11dhTxB2 per mg creatinine, average patient value: healthy no-aspirin average 1119 pg/mg
Experimental: The present invention provides a urinary 11dhTxB2 Competitive ELISA Assay. An illustrative standard curve was prepared (see FIG. 6) by spiking known amounts of 11dhTxB2 into low level urine diluted 1:5 in Tris assay buffer (0.1M Tris, 0.1% BSA) or into assay buffer alone. 100 μl of standards or actual samples (having taken known amounts of aspirin and diluted 1:5 in Tris assay buffer) was added to wells coated with goat anti-mouse antibody, followed by the addition of 50 μl of 11 dhTxB2-AP (alkaline phosphatase) tracer and 50 μl of 11 dhTxB2 mAb. The reactions were then allowed to incubate for a predetermined amount of time, typically with shaking at room temperature. In preferred embodiments the incubation is about two hours in length. Each well is then washed with a wash buffer and approximately 200 μl of substrate added (p-nitrophenyl-phosphate, pNPP). The reactions are then incubated again for approximately thirty minutes. A stop solution is added to each well, and the plate read for OD at 405 nm. Results from the assay provide for the amount of 11dhTxB2 and 11 dh2,3dTxB2 present in the sample (note that results are compared to the standard curve). The amount of the two metabolites present in the sample is indirectly proportional to the optical density read at 405 nm. For clinical samples, creatinine values are also obtained, and data from assays presented as pg metabolite/mg creatinine. Initially, 171 urine samples were taken from subjects either off aspirin or on 81 or 325 mg aspirin/day. TxA2 metabolite amounts were determined for each sample using the methods and kits of the present invention. Values were normalized for urinary dilution by dividing TxA2 metabolite amounts by creatinine concentrations. 354 urine samples from subjects either on or off aspirin therapy were run using the methods and kits of the present invention. Values were calculated and normalized for urinary dilution by dividing by creatinine concentration, and the frequency of each concentration was calculated and shown in a frequency plot, FIG. 5. Subjects on aspirin are plotted with solid bars and subjects not on aspirin are plotted using hatched bars. Positive samples are below 1500 pg/mg creatinine cutoff, whereas negative samples are those that are above the 1500 pg/mg creatinine cutoff. As shown in FIGS. 4-5, clinical data can be obtained using the above-described methods. […] The assay detection range was suitable for measurement of 11dhTxB2 in a population (62-3122 pg 11dhTxB2/mg creatinine—see FIG. 7). […] All three levels of aspirin doses are statistically significant when compared to the healthy, no aspirin controls.

[5] = aspirin ingestion present, 354 urine samples in total

Compound	reactivity of the antibodies with the compound (in words) [1]	% Reactivity (cross reactivity) [1] [%]	also measured
CCCCC[C@H](O)/C=C/[C@H]1OC(O)C[C@H](O)[C@@H]1C/C=C\CC(=O)O (stereo partly shown) [2,3 dinor TxB2]	unreactive	1.93	–
CCCCC[C@H](O)/C=C/[C@@H]1[C@@H](CC(=O)CCCCC(=O)O)[C@@H](O)C[C@H]1O [6-keto PGF1a]	unreactive	<0.01	–
CCCCC[C@H](O)/C=C/[C@H]1C(=O)C[C@H](O)[C@@H]1C/C=C\CCCC(=O)O [PGD2]	unreactive	0.2	–
CC(=O)Oc1ccccc1C(=O)O [aspirin, acetyl salicylic acid]	–	–	reduction of cardiovascular events [2]: ≤ 25%; block of platelet COX-1 activity [3]: more than 95%; urinary 11dhTxB2 per mg creatinine, average patient value ([4]; aspirin 81 mg/day): 418 pg/mg; urinary 11dhTxB2 per mg creatinine, average patient value ([4]; aspirin 162 mg/day): 471 pg/mg; urinary 11dhTxB2 per mg creatinine, average patient value ([4]; aspirin 325 mg/day): 377 pg/mg; number of urine samples Negative (>1500 pg/creatinine) [4, 5]: 16; number of urine samples Positive (<1500 pg/creatinine) [4, 5]: 251
O=C(O)CCCCC(=O)CCC1C(O)CC(=O)C1CCC(=O)O (stereo not shown) [2,3,4,5-tetranor-20-Carboxy 13,14-dihydro-15-keto PGE2]	unreactive	<0.01	–
O=C(O)CCCCC(=O)CCC1C(O)CC(O)C1CCC(=O)O (stereo not drawn) [2,3,4,5-tetranor-20-Carboxy 13,14-dihydro-15-keto PGF2α]	unreactive	<0.01	–
CCCCCC(O)C=CC1OC(=O)CC(O)C1CC=CCC(=O)O (stereo not shown) [11-dehydro-2,3 dinor thromboxane B2]	react; also recorded: high reactivity	166	–
CCCCC[C@H](O)/C=C/[C@H]1OC(O)C[C@H](O)[C@@H]1C/C=C\CCCC(=O)O (stereo partly shown) [TxB2, thromboxane B2]	unreactive	0.05	–
CCCCCC(O)C=CC1OC(=O)CC(O)C1CC=CCCCC(=O)O (stereo not shown) [11 dh TxB2, 11-dehydro Thromboxane B2]	react; also recorded: high reactivity	100	–
CCCCC[C@H](O)/C=C/[C@H]1[C@H](O)CC(=O)[C@@H]1C/C=C\CCCC(=O)O [PGE2]	unreactive	<0.01	–
